The numbers were not newly measured in patent publication US20100112053A1, “GASTRIC RETENTION-TYPE SUSTAINED-RELEASE LEVODOPA PREPARATION” (Kissei Pharmaceutical Co., Ltd., priority 2007, published 2010), which cites them from elsewhere.

The structures appear in SMILES notation. Like-named read-outs stand apart in the source and are kept apart here.

The mark [1] stands for this setting: under a weakly acidic to basic condition.

`N[C@@H](Cc1ccc(O)c(O)c1)C(=O)O` [levodopa]: the Solubility result is, setting by setting: under setting [1], “low”; (under an acidic condition) “high”.

Consider `C[C@@](Cc1ccc(O)c(O)c1)(NN)C(=O)O` [carbidopa], for which the Solubility entry under setting [1] is reported as “low” and the Solubility result (under an acidic condition) is given as “high”.
